Test results from patent US12466850B2, “Method for producing peptide compound” (priority 2019, dated 2025).

Assays:
[1] = Test Example 2: Evaluation of the solubility in an organic solvent (HPLC); format: physicochemical; settings: for amount of the compound dissolved in 100 g of organic solvent: per 100 g solvent, 20° C., stirred one hour or longer
Experimental: In the measurement of the solubility, the compound obtained in Synthesis Example 8 was used.
(§1) A test compound was dissolved in toluene, cyclopentyl methyl ether, or ethyl acetate, and stirred at 20° C. for one hour or longer. The obtained solution was subjected to centrifugal filtration, and then the resultant filtrate was subjected to analysis under the below-shown conditions for measurement, determining an amount of the test compound dissolved.
(§2) • High performance liquid chromatography: HPLC-20A, manufactured by SHIMADZU Corporation • Column: XBridge C18 (2.5 μm, 4.6×100 mm) • Column oven temperature: 40° C. • Eluent: A=0.2 vol % aqueous solution of trifluoroacetic acid • B=0.2 vol % acetonitrile solution of trifluoroacetic acid • AB=50/50 (0 to 2 minutes), 50/50 to 0/100 (2 to 15 minutes), 0/100 (15 to 40 minutes) • Eluent flow rate: 1.0 mL/minute • Wavelength for detection: 210 nm [Results of Test]
The compound in Synthesis Example 8 was improved in the solubility in toluene, cyclopentyl methyl ether, and ethyl acetate, as compared to the compound in Reference Synthesis Example 3.

[2] = Test Example 1: Evaluation of the solubility in an organic solvent (saturated solution, HPLC); format: physicochemical; settings: for amount of the compound dissolved in 100 g of organic solvent: per 100 g solvent, 20° C., saturated, stirred one hour or longer; for solubility as compared to the compound in Reference Synthesis Example 3: in toluene, cyclopentyl methyl ether, and ethyl acetate
Experimental: In the measurement of the solubility, the compounds obtained in Synthesis Examples 2 and 6 and Reference Synthesis Example 3 were used.
as §1, with “acetate so as to be saturated,” for “acetate,”
as §2
The compounds in Synthesis Examples 2 and 6 were improved in the solubility in toluene, cyclopentyl methyl ether, and ethyl acetate, as compared to the compound in Reference Synthesis Example 3.

Compound | amount of the compound dissolved in 100 g of organic solvent ([1]; cyclopentyl methyl ether) [g] | amount of the compound dissolved in 100 g of organic solvent ([1]; ethyl acetate) [g] | solubility as compared to the compound in Reference Synthesis Example 3 ([1]; in toluene, cyclopentyl methyl ether, and ethyl acetate) | amount of the compound dissolved in 100 g of organic solvent ([1]; toluene) [g] | amount of the compound dissolved in 100 g of organic solvent ([2]; cyclopentyl methyl ether) [g] | amount of the compound dissolved in 100 g of organic solvent ([2]; ethyl acetate) [g] | amount of the compound dissolved in 100 g of organic solvent ([2]; toluene) [g] | solubility as compared to the compound in Reference Synthesis Example 3 [2]
CC(CCC(COCCC[Si](CCOC(=O)[C@H](Cc1ccccc1)NC(=O)[C@H](Cc1ccccc1)NC(=O)OCC1c2ccccc2-c2ccccc21)(c1ccccc1)c1ccccc1)C(C)CC(C)(C)C)CC(C)(C)C (stereo partly drawn) [Synthesis Example 8, Fmoc-Phe-Phe-OFPSE] | >140 | >140 | improved | >140 | – | – | – | –
C[Si](C)(C)CCOC(=O)[C@H](Cc1ccccc1)NC(=O)[C@H](Cc1ccccc1)NC(=O)OCC1c2ccccc2-c2ccccc21 [Reference Synthesis Example 3, Fmoc-Phe-Phe-OTMSE, reference compound] | 1.4 | 4.5 | – | 0.87 | 1.4 | 4.5 | 0.87 | –
CCCCCCCCCCCCCCCCCC[Si](C)(C)CCOC(=O)[C@H](Cc1ccccc1)NC(=O)[C@H](Cc1ccccc1)NC(=O)OCC1c2ccccc2-c2ccccc21 [Synthesis Example 6, Fmoc-Phe-Phe-ODMSE] | – | – | – | – | 41 | 8.4 | 38 | improved
CC[Si](CC)(CCCOCC(CCC(C)CC(C)(C)C)C(C)CC(C)(C)C)CCOC(=O)[C@H](Cc1ccccc1)NC(=O)[C@H](Cc1ccccc1)NC(=O)OCC1c2ccccc2-c2ccccc21 (stereo partly drawn) [Synthesis Example 2, Fmoc-Phe-Phe-OFESE] | – | – | – | – | 111 | 97 | 116 | improved
